Experimental data: ChEMBL document CHEMBL1201862, “PubChem BioAssay data set” (2004)
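Exposure lasted 48 hours, with cells grown in 96-well plates and compounds tested at five concentrations. GI50 marks 50% less growth.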 Activity calls are given as the source filed them. Rule as the data show it: active = GI50 up to about 1.1 µM and inactive = higher.

Columns and labels:
Experiment in all cases: inhibition of tumour cell growth, NCI panel, 48 h
[1] = test system: A549
[2] = test system: ACHN
[3] = test system: EKVX
[4] = test system: HT-29
[5] = test system: Hs-578T
[6] = test system: KM12
[7] = test system: MCF7
[8] = test system: MOLT-4
[9] = test system: Malme-3M
[10] = test system: NCI-H226
[11] = test system: NCI-H522
[12] = test system: SF-268
[13] = test system: SF-295
[14] = test system: SK-MEL-28
[15] = test system: SK-OV-3
[16] = test system: SNB-19
[17] = test system: SNB-75
[18] = test system: UACC-257
[19] = test system: HCT-15
[20] = test system: RPMI-8226

Row | SMILES | GI50 [1] | GI50 [2] | GI50 [3] | GI50 [4] | GI50 [5] | GI50 [6] | GI50 [7] | GI50 [8] | GI50 [9] | GI50 [10] | GI50 [11] | GI50 [12] | GI50 [13] | GI50 [14] | GI50 [15] | GI50 [16] | GI50 [17] | GI50 [18] | GI50 [19] | GI50 [20]
1 | CC(=O)Oc1ccc2c(c1)CC[C@@H]1C2CC[C@]2(C)C(=O)NC(=O)CC12 (stereo partly drawn) | > 100 µM (inactive) | > 100 µM (inactive) | 23.9 µM (inactive) | > 100 µM (inactive) | > 100 µM (inactive) | > 100 µM (inactive) | > 100 µM (inactive) | > 100 µM (inactive) | > 100 µM (inactive) | > 100 µM (inactive) | > 100 µM (inactive) | > 100 µM (inactive) | > 100 µM (inactive) | > 100 µM (inactive) | > 100 µM (inactive) | > 100 µM (inactive) | > 100 µM (inactive) | > 100 µM (inactive) | – | –
2 | O=C(/C=C/c1ccsc1)c1ccc(Cl)s1 | > 100 µM (inactive) | > 100 µM (inactive) | > 100 µM (inactive) | 34 µM (inactive) | > 100 µM (inactive) | 19.5 µM (inactive) | 22.5 µM (inactive) | 20.6 µM (inactive) | > 100 µM (inactive) | 53.3 µM (inactive) | – | 67.5 µM (inactive) | 59.4 µM (inactive) | 55.1 µM (inactive) | > 100 µM (inactive) | > 100 µM (inactive) | > 100 µM (inactive) | > 100 µM (inactive) | 43.5 µM | 17.1 µM (inactive)
3 | CC(C)(Br)C(=O)C(Br)Br | 16.6 µM (inactive) | 10.5 µM (inactive) | 13.8 µM (inactive) | 8.17 µM (inactive) | 6.89 µM (inactive) | 16.8 µM (inactive) | 6.38 µM (inactive) | 1.67 µM (inactive) | 2.01 µM (inactive) | 16.7 µM (inactive) | 1.67 µM (inactive) | 14 µM (inactive) | 18.7 µM (inactive) | 9.04 µM (inactive) | 17.5 µM (inactive) | 19.7 µM (inactive) | 13.7 µM (inactive) | 9.84 µM (inactive) | – | –
4 | COc1ccccc1/C=C1\Sc2scc(-c3ccc(O)c(O)c3)[n+]2C1=O | 45.8 µM (inactive) | 16.7 µM (inactive) | 46.6 µM (inactive) | 21.4 µM (inactive) | 88.3 µM (inactive) | 32 µM (inactive) | 25.5 µM (inactive) | 13.9 µM (inactive) | – | 27.9 µM (inactive) | 8.99 µM (inactive) | 58.9 µM (inactive) | 24.9 µM (inactive) | 18.2 µM (inactive) | 21.4 µM (inactive) | 35.8 µM (inactive) | – | 26.3 µM (inactive) | 16.5 µM | 13.8 µM (inactive)
